From ChEMBL document CHEMBL3885861, “Open TG-GATES”

Species on record: Rattus norvegicus
Assay: Open TG-GATES - Regimen: Daily Repeat
Format: toxicity, organism-based, Sprague-Dawley
Design: regimen Daily Repeat, gender Male, age 6 weeks
Conditions: in vivo, po, 100 mg/kg, route gavage, dose level Middle; for APTT / Bas / Eos / Fbg / Hb / Ht / Lym / MCH / MCHC / MCV / Mono / Neu / PT / Plat / RBC / Ret / WBC: tissue Blood; for KIDNEY_L / KIDNEY_R / KIDNEY_TOTAL: tissue Kidney; for LIVER: tissue Liver; for A/G / ALP / ALT / AST / BUN / CRE / Ca / Cl / DBIL / GLC / IP / K / LDH / Na / PL / RALB / TBIL / TC / TG / TP / gamma-GTP: tissue Plasma

`CC(=O)Nc1ccc2c(c1)Cc1ccccc1-2` [2-ACETYLAMINOFLUORENE] showed a TERMINAL_BW (72 h, time 3 day) of 202.9 g, an APTT (72 h, time 3 day) of 20.1 s and a Bas (72 h, time 3 day) of 0.8%. For the same molecule, the Eos (72 h, time 3 day) was 0.8%, the Fbg (72 h, time 3 day) was 260.6 mg/dL and the Hb (72 h, time 3 day) was 15.7 g/dL. The Ht (72 h, time 3 day) was 45.1%, the Lym (72 h, time 3 day) was 72.4% and the MCH (72 h, time 3 day) was 21.9 pg. It also gave an MCHC (72 h, time 3 day) of 34.9%, an MCV (72 h, time 3 day) of 62.7 fL and a Mono (72 h, time 3 day) of 2.8%. It also gave a Neu (72 h, time 3 day) of 22.4%, a PT (72 h, time 3 day) of 12.7 s and a Plat (72 h, time 3 day) of 133.7 x10_4/uL. For the same molecule, the RBC (72 h, time 3 day) was 718.2 x10_4/ul, the Ret (72 h, time 3 day) was 3.6% and the WBC (72 h, time 3 day) was 85 x10_2/uL. It also gave a KIDNEY_L (72 h, time 3 day) of 1 g, a KIDNEY_R (72 h, time 3 day) of 0.9 g and a KIDNEY_TOTAL (72 h, time 3 day) of 1.9 g. It also gave an LIVER (72 h, time 3 day) of 8.8 g, an A/G (72 h, time 3 day) of 1.4 and an ALP (72 h, time 3 day) of 615.4 IU/L. For the same molecule, the ALT (72 h, time 3 day) was 24 IU/L, the AST (72 h, time 3 day) was 70.8 IU/L and the BUN (72 h, time 3 day) was 11.4 mg/dL. For the same molecule, the CRE (72 h, time 3 day) was 0.4 mg/dL, the Ca (72 h, time 3 day) was 10.1 mg/dL and the Cl (72 h, time 3 day) was 104.4 meq/L. The DBIL (72 h, time 3 day) was 0.076 mg/dL, the GLC (72 h, time 3 day) was 191 mg/dL and the IP (72 h, time 3 day) was 8.2 mg/dL. It also gave a K (72 h, time 3 day) of 4.3 meq/L, an LDH (72 h, time 3 day) of 220.8 IU/L and a Na (72 h, time 3 day) of 141.6 meq/L. For the same molecule, the PL (72 h, time 3 day) was 86.2 mg/dL, the RALB (72 h, time 3 day) was 2.9 g/dL and the TBIL (72 h, time 3 day) was 0.1 mg/dL. For the same molecule, the TC (72 h, time 3 day) was 45.4 mg/dL, the TG (72 h, time 3 day) was 47.6 mg/dL and the TP (72 h, time 3 day) was 5 g/dL. It also gave a gamma-GTP (72 h, time 3 day) of 1.2 IU/L, a TERMINAL_BW ([…], time 7 day) of 214.1 g and a TERMINAL_BW ([…], time 14 day) of 247.1 g. The TERMINAL_BW ([…], time 28 day) was 286 g, the APTT ([…], time 7 day) was 20.2 s and the Bas ([…], time 7 day) was 0.8%. It also gave an Eos ([…], time 7 day) of 0.6%, a Fbg ([…], time 7 day) of 167.8 mg/dL and a Hb ([…], time 7 day) of 14.7 g/dL. For the same molecule, the Ht ([…], time 7 day) was 41.6%, the Lym ([…], time 7 day) was 83% and the MCH ([…], time 7 day) was 20.5 pg. The MCHC ([…], time 7 day) was 35.3%, the MCV ([…], time 7 day) was 58.1 fL and the Mono ([…], time 7 day) was 2.8%. The Neu ([…], time 7 day) was 12.2%, the PT ([…], time 7 day) was 13.8 s and the Plat ([…], time 7 day) was 174.6 x10_4/uL. It also gave an RBC ([…], time 7 day) of 715.8 x10_4/ul, a Ret ([…], time 7 day) of 1.2% and a WBC ([…], time 7 day) of 106.3 x10_2/uL. The APTT ([…], time 14 day) was 18.3 s, the Bas ([…], time 14 day) was 0.8% and the Eos ([…], time 14 day) was 0%. For the same molecule, the Fbg ([…], time 14 day) was 106.8 mg/dL, the Hb ([…], time 14 day) was 13.1 g/dL and the Ht ([…], time 14 day) was 38.5%. It also gave a Lym ([…], time 14 day) of 74.6%, an MCH ([…], time 14 day) of 19.7 pg and an MCHC ([…], time 14 day) of 34.1%. It also gave an MCV ([…], time 14 day) of 57.7 fL, a Mono ([…], time 14 day) of 3% and a Neu ([…], time 14 day) of 21%. It also gave a PT ([…], time 14 day) of 15.2 s, a Plat ([…], time 14 day) of 144.4 x10_4/uL and an RBC ([…], time 14 day) of 667 x10_4/ul. For the same molecule, the Ret ([…], time 14 day) was 6.3%, the WBC ([…], time 14 day) was 169.9 x10_2/uL and the APTT ([…], time 28 day) was 22.1 s. It also gave a Bas ([…], time 28 day) of 0.2%, an Eos ([…], time 28 day) of 0% and a Fbg ([…], time 28 day) of 74.4 mg/dL. The Hb ([…], time 28 day) was 13.6 g/dL, the Ht ([…], time 28 day) was 40.8% and the Lym ([…], time 28 day) was 61.6%. The MCH ([…], time 28 day) was 20.5 pg, the MCHC ([…], time 28 day) was 33.4% and the MCV ([…], time 28 day) was 61.3 fL. The Mono ([…], time 28 day) was 2.8%, the Neu ([…], time 28 day) was 34.2% and the PT ([…], time 28 day) was 18.8 s. The Plat ([…], time 28 day) was 149.9 x10_4/uL, the RBC ([…], time 28 day) was 667.6 x10_4/ul and the Ret ([…], time 28 day) was 6.6%. For the same molecule, the WBC ([…], time 28 day) was 220.7 x10_2/uL, the KIDNEY_L ([…], time 7 day) was 1 g and the KIDNEY_R ([…], time 7 day) was 0.9 g. The KIDNEY_TOTAL ([…], time 7 day) was 1.9 g, the KIDNEY_L ([…], time 14 day) was 1.1 g and the KIDNEY_R ([…], time 14 day) was 1.1 g. For the same molecule, the KIDNEY_TOTAL ([…], time 14 day) was 2.2 g, the KIDNEY_L ([…], time 28 day) was 1.3 g and the KIDNEY_R ([…], time 28 day) was 1.3 g. It also gave a KIDNEY_TOTAL ([…], time 28 day) of 2.5 g, an LIVER ([…], time 7 day) of 9.2 g and an LIVER ([…], time 14 day) of 10.6 g. It also gave an LIVER ([…], time 28 day) of 11.7 g, an A/G ([…], time 7 day) of 1.5 and an ALP ([…], time 7 day) of 822.2 IU/L. It also gave an ALT ([…], time 7 day) of 33.8 IU/L, an AST ([…], time 7 day) of 83.4 IU/L and a BUN ([…], time 7 day) of 11.4 mg/dL. It also gave a CRE ([…], time 7 day) of 0.4 mg/dL, a Ca ([…], time 7 day) of 9.8 mg/dL and a Cl ([…], time 7 day) of 105.4 meq/L. The DBIL ([…], time 7 day) was 0.098 mg/dL, the GLC ([…], time 7 day) was 170.6 mg/dL and the IP ([…], time 7 day) was 6 mg/dL. For the same molecule, the K ([…], time 7 day) was 4.1 meq/L, the LDH ([…], time 7 day) was 274.8 IU/L and the Na ([…], time 7 day) was 139.8 meq/L. For the same molecule, the PL ([…], time 7 day) was 93 mg/dL, the RALB ([…], time 7 day) was 2.6 g/dL and the TBIL ([…], time 7 day) was 0.2 mg/dL. For the same molecule, the TC ([…], time 7 day) was 37.6 mg/dL, the TG ([…], time 7 day) was 75.2 mg/dL and the TP ([…], time 7 day) was 4.4 g/dL. For the same molecule, the gamma-GTP ([…], time 7 day) was 1 IU/L, the A/G ([…], time 14 day) was 1.3 and the ALP ([…], time 14 day) was 791.2 IU/L. The ALT ([…], time 14 day) was 41 IU/L, the AST ([…], time 14 day) was 83.6 IU/L and the BUN ([…], time 14 day) was 13.6 mg/dL. It also gave a CRE ([…], time 14 day) of 0.5 mg/dL, a Ca ([…], time 14 day) of 9.6 mg/dL and a Cl ([…], time 14 day) of 103.4 meq/L. The DBIL ([…], time 14 day) was 0.6 mg/dL, the GLC ([…], time 14 day) was 157 mg/dL and the IP ([…], time 14 day) was 7.8 mg/dL. For the same molecule, the K ([…], time 14 day) was 4.1 meq/L, the LDH ([…], time 14 day) was 206 IU/L and the Na ([…], time 14 day) was 141 meq/L. For the same molecule, the PL ([…], time 14 day) was 104.8 mg/dL, the RALB ([…], time 14 day) was 2.3 g/dL and the TBIL ([…], time 14 day) was 0.7 mg/dL. It also gave a TC ([…], time 14 day) of 43.4 mg/dL, a TG ([…], time 14 day) of 64.6 mg/dL and a TP ([…], time 14 day) of 4.1 g/dL. For the same molecule, the gamma-GTP ([…], time 14 day) was 2 IU/L, the A/G ([…], time 28 day) was 1.1 and the ALP ([…], time 28 day) was 1005.4 IU/L. It also gave an ALT ([…], time 28 day) of 58.8 IU/L, an AST ([…], time 28 day) of 126.6 IU/L and a BUN ([…], time 28 day) of 12.4 mg/dL. For the same molecule, the CRE ([…], time 28 day) was 0.4 mg/dL, the Ca ([…], time 28 day) was 8.9 mg/dL and the Cl ([…], time 28 day) was 104.6 meq/L. The DBIL ([…], time 28 day) was 1.2 mg/dL, the GLC ([…], time 28 day) was 146 mg/dL and the IP ([…], time 28 day) was 6.7 mg/dL. The K ([…], time 28 day) was 3.9 meq/L, the LDH ([…], time 28 day) was 264.4 IU/L and the Na ([…], time 28 day) was 141 meq/L. It also gave a PL ([…], time 28 day) of 128.8 mg/dL, an RALB ([…], time 28 day) of 2 g/dL and a TBIL ([…], time 28 day) of 1.6 mg/dL. It also gave a TC ([…], time 28 day) of 55.4 mg/dL, a TG ([…], time 28 day) of 76.2 mg/dL and a TP ([…], time 28 day) of 3.9 g/dL. It also gave a gamma-GTP ([…], time 28 day) of 9.6 IU/L.
